In US20250320496A1, “MODULATION OF ABCB11 GENE TRANSCRIPTION USING ANTISENSE OLIGONUCLEOTIDES TARGETING REGULATORY RNAS” (CAMP4 Therapeutics Corporation, priority 2022, published 2025):
Strand notation (5' to 3'): a small letter for the sugar, then the base; units joined by * are phosphorothioate-linked, units joined directly phosphodiester-linked; [ ] holds rarer units or linkages, { } end groups; capitals alone tell only the bases. e = 2'-O-(2-methoxyethyl) (MOE); l = locked nucleic acid (LNA); [5mC] = 5-methylcytosine; d = 2'-deoxy (DNA)

Each substance was assayed on human ABCB11 mRNA (assay: ASO treatment of primary human hepatocytes (PHH), ABCB11 mRNA by RT-qPCR normalized to B2M). Details: PHHs, 5 μM dose (FIG. 14).
Assay type: cell-based
Summary of the method: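 Plated primary human hepatocytes were treated 4 h post-thaw with ASO (e.g., 1.25–10 μM; initial screen 5 μM) in medium containing 0.3 mg/ml Matrigel for 72 hrs. Total RNA was reverse-transcribed and ABCB11 mRNA measured by Taqman RT-qPCR, normalized to B2M, with fold change versus untreated PHHs.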

Substance | ABCB11 mRNA fold change [fold]
CO-11202: ASO containing PO-modifications identified in the Table 13 screen in PHHs (antisense eT*eG*eTeT*eT*eT*eG*e[5mC]eT*eT*eG*eG*eTe[5mC]*eA*eA*eG*eAeG*eG) | ~2

Same assay, conditions: PHHs, 10 μM dose (FIG. 14)

Substance | ABCB11 mRNA fold change [fold]
CO-11202: ASO containing PO-modifications identified in the Table 13 screen in PHHs (antisense eT*eG*eTeT*eT*eT*eG*e[5mC]eT*eT*eG*eG*eTe[5mC]*eA*eA*eG*eAeG*eG) | ~3.5

Same assay, conditions: PHHs, comparison study with OCA, elafibranor, fenofibrate (FIG. 14)

Substance | ABCB11 mRNA expression, dose response
CO-11202: ASO containing PO-modifications identified in the Table 13 screen in PHHs (antisense eT*eG*eTeT*eT*eT*eG*e[5mC]eT*eT*eG*eG*eTe[5mC]*eA*eA*eG*eAeG*eG) | dose-dependent increase

Same assay, conditions: primary human hepatocytes, 5 μM ASO with PO-modifications, normalized to untreated hepatocytes

Substance | ABCB11 FC mRNA (5 μM ASO vs. untreated) [fold change]
CO-11198 (antisense eT*eG*eT*eT*eTeTeG*e[5mC]*eT*eT*eG*eG*eT*e[5mC]eAeA*eG*eA*eG*eG) | 0.97
CO-11199 (antisense eT*eG*eT*eTeTeTeG*e[5mC]*eT*eT*eG*eG*eT*e[5mC]eAeAeG*eA*eG*eG) | 0.97
CO-11200 (antisense eT*eG*eTeTeTeTeG*e[5mC]*eT*eT*eG*eG*eT*e[5mC]eAeAeGeA*eG*eG) | 1.34
CO-11201 (antisense eT*eGeTeTeTeTeG*e[5mC]*eT*eT*eG*eG*eT*e[5mC]eAeAeGeAeG*eG) | 0.99
CO-11202: ASO containing PO-modifications identified in the Table 13 screen in PHHs (antisense eT*eG*eTeT*eT*eT*eG*e[5mC]eT*eT*eG*eG*eTe[5mC]*eA*eA*eG*eAeG*eG) | 1.50
CO-11203 (antisense eT*eG*eT*eTeT*eT*eG*e[5mC]eT*eT*eG*eGeT*e[5mC]*eA*eAeG*eA*eG*eG) | 1.38
CO-11204 (antisense eT*eG*eT*eT*eTeT*eG*e[5mC]*eTeT*eG*eG*eTe[5mC]*eA*eA*eGeA*eG*eG) | 1.15
CO-11205 (antisense eT*eGeT*eT*eT*eTeG*e[5mC]*eT*eTeG*eG*eT*e[5mC]eA*eA*eG*eAeG*eG) | 1.11
CO-11206 (antisense eT*eGeT*eT*eTeT*eG*e[5mC]eT*eT*eGeG*eT*e[5mC]eA*eA*eGeA*eG*eG) | 1.02
CO-11207 (antisense eT*eG*eTeT*eT*eTeG*e[5mC]*eTeT*eG*eGeT*e[5mC]*eAeA*eG*eAeG*eG) | 0.91
CO-11208 (antisense eT*eG*eTeT*eTeT*eGe[5mC]*eTeT*eGeG*eTe[5mC]*eAeA*eGeA*eG*eG) | 1.04
CO-11209 (antisense eT*eGeT*eTeT*eTeG*e[5mC]eT*eTeG*eGeT*e[5mC]eA*eAeG*eAeG*eG) | 1.11
CO-11210 (antisense eG*eT*lG*eG*lAeGl[5mC]*eA*lA*eA*l[5mC]*eT*lA*eGlGe[5mC]*lA*e[5mC]*eT*eG) | 2.79
CO-11211 (antisense eG*eT*lG*eGlAeGl[5mC]*eA*lA*eA*l[5mC]*eT*lA*eGlGe[5mC]lA*e[5mC]*eT*eG) | 2.80
CO-11212 (antisense eG*eT*lGeGlAeGl[5mC]*eA*lA*eA*l[5mC]*eT*lA*eGlGe[5mC]lAe[5mC]*eT*eG) | 2.44
CO-11213 (antisense eG*eTlGeGlAeGl[5mC]*eA*lA*eA*l[5mC]*eT*lA*eGlGe[5mC]lAe[5mC]eT*eG) | 1.95
CO-11214 (antisense eG*eT*lGeG*lA*eG*l[5mC]*eAlA*eA*l[5mC]*eT*lAeG*lG*e[5mC]*lA*e[5mC]eT*eG) | 2.90
CO-11215 (antisense eG*eT*lG*eGlA*eG*l[5mC]*eAlA*eA*l[5mC]*eTlA*eG*lG*e[5mC]lA*e[5mC]*eT*eG) | 2.68
CO-11216 (antisense eG*eT*lG*eG*lAeG*l[5mC]*eA*lAeA*l[5mC]*eT*lAeG*lG*e[5mC]*lAe[5mC]*eT*eG) | 2.58
CO-11217 (antisense eG*eTlG*eG*lA*eGl[5mC]*eA*lA*eAl[5mC]eT*lA*eGlG*e[5mC]*lA*e[5mC]eT*eG) | 2.10
CO-11218 (antisense eG*eTlG*eG*lAeG*l[5mC]*eAlA*eA*l[5mC]eT*lA*eGlG*e[5mC]*lAe[5mC]*eT*eG) | 2.86
CO-11219 (antisense eG*eT*lGeG*lA*eGl[5mC]*eA*lAeA*l[5mC]*eTlA*eG*lGe[5mC]*lA*e[5mC]eT*eG) | 2.45
CO-11220 (antisense eG*eT*lGeG*lAeG*l[5mC]eA*lAeA*l[5mC]eT*lAeG*lGe[5mC]*lAe[5mC]*eT*eG) | 2.22
CO-11221 (antisense eG*eTlG*eGlA*eGl[5mC]*eAlA*eAl[5mC]*eTlA*eGlG*e[5mC]lA*e[5mC]eT*eG) | 2.00
CO-11222 (antisense eG*eT*lG*eG*eAlGe[5mC]*eA*lA*eA*e[5mC]*lT*eA*eGlGe[5mC]*eA*l[5mC]*eT*eG) | 1.79

Same assay, conditions: primary human hepatocytes, 5 μM ASO, normalized to untreated PHHs (UNT)

Substance | ABCB11 mRNA FC (5 μM ASO vs. UNT) [fold change]
CO-7186: derivative ASO with additional chemical modifications based on parent ASO CO-4535 (antisense eT*eG*eG*l[5mC]*eG*dT*dT*lA*dT*dT*dA*lA*dT*dT*d[5mC]*lT*eA*e[5mC]*eA*eG) | 1.85
CO-7187: derivative ASO with additional chemical modifications based on parent ASO CO-4535 (antisense eT*eG*eG*e[5mC]*lG*dT*dT*dA*lT*dT*dA*dA*lT*dT*d[5mC]*eT*lA*e[5mC]*eA*eG) | 1.544
CO-7188: derivative ASO with additional chemical modifications based on parent ASO CO-4535 (antisense eT*eG*eG*l[5mC]*eG*lT*eT*lA*eT*lT*eA*lA*eT*lT*e[5mC]*lT*eA*l[5mC]*eA*eG) | 1.697
CO-7189: derivative ASO with additional chemical modifications based on parent ASO CO-4535 (antisense eT*eG*lG*e[5mC]*lG*eT*lT*eA*lT*eT*lA*eA*lT*eT*l[5mC]*eT*lA*e[5mC]*eA*eG) | 1.487
CO-7190: derivative ASO with additional chemical modifications based on parent ASO CO-4535 (antisense eT*eG*lG*e[5mC]*eG*lT*eT*eA*lT*eT*eA*lA*eT*eT*l[5mC]*eT*eA*l[5mC]*eA*eG) | 1.641
CO-7191: derivative ASO with additional chemical modifications based on parent ASO CO-4535 (eT*eG*eG*e[5mC]*lG*eT*eT*eA*lT*eT*eA*eA*lT*eT*e[5mC]*eT*lA*e[5mC]*eA*eG) | 1.676
CO-7192 (eT*eG*eG*l[5mC]*eG*eT*eT*lA*eT*eT*eA*lA*eT*eT*e[5mC]*lT*eA*e[5mC]*eA*eG; antisense) | 1.591
CO-7193: derivative ASO with additional chemical modifications based on parent ASO CO-4535 (eT*eG*eG*e[5mC]*eG*lT*eT*eA*eT*eT*lA*eA*eT*eT*e[5mC]*lT*eA*e[5mC]*eA*eG) | 1.555
CO-7195 (eG*eG*eT*eG*eG*eA*dG*d[5mC]*dA*dA*dA*d[5mC]*dT*dA*dG*dG*e[5mC]*eA*e[5mC]*eT*eG*eA; antisense) | 1.443
CO-7196 (eG*eG*eT*eG*eG*eA*eG*e[5mC]*eA*eA*eA*e[5mC]*eT*eA*eG*eG*e[5mC]*eA*e[5mC]*eT*eG*eA; antisense) | 1.33
CO-7197 (eG*eG*eT*eG*eG*dA*dG*d[5mC]*eA*dA*dA*d[5mC]*dT*eA*dG*dG*d[5mC]*eA*e[5mC]*eT*eG*eA; antisense) | 1.364
CO-7198 (eG*eG*eT*eG*eG*lA*dG*d[5mC]*lA*dA*dA*d[5mC]*dT*lA*dG*dG*l[5mC]*eA*e[5mC]*eT*eG*eA; antisense) | 1.075
CO-7199 (eA*eG*eG*eT*eG*eG*eA*dG*d[5mC]*dA*dA*dA*d[5mC]*dT*dA*dG*dG*e[5mC]*eA*e[5mC]*eT*eG*eA*eG; antisense) | 1.166
CO-7200 (eA*eG*eG*eT*eG*eG*eA*eG*e[5mC]*eA*eA*eA*e[5mC]*eT*eA*eG*eG*e[5mC]*eA*e[5mC]*eT*eG*eA*eG; antisense) | 1.277
CO-7201 (eA*eG*eG*eT*eG*dG*dA*eG*d[5mC]*dA*eA*dA*d[5mC]*eT*dA*dG*eG*d[5mC]*dA*e[5mC]*eT*eG*eA*eG; antisense) | 1.253
CO-7205 (eT*eT*eG*eG*e[5mC]*dG*dT*dT*eA*dT*dT*dA*dA*eT*dT*d[5mC]*dT*eA*e[5mC]*eA*eG*eA; antisense) | 1.278
CO-7206 (eT*eT*eG*eG*e[5mC]*lG*dT*dT*lA*dT*dT*dA*dA*lT*dT*d[5mC]*lT*eA*e[5mC]*eA*eG*eA; antisense) | 1.164
CO-7207 (eT*eT*eT*eG*eG*e[5mC]*eG*dT*dT*dA*dT*dT*dA*dA*dT*dT*d[5mC]*eT*eA*e[5mC]*eA*eG*eA*eG; antisense) | 1.221
CO-7208 (eT*eT*eT*eG*eG*e[5mC]*eG*eT*eT*eA*eT*eT*eA*eA*eT*eT*e[5mC]*eT*eA*e[5mC]*eA*eG*eA*eG; antisense) | 1.339
CO-7209 (eT*eT*eT*eG*eG*d[5mC]*dG*eT*dT*dA*eT*dT*dA*eA*dT*dT*e[5mC]*dT*dA*e[5mC]*eA*eG*eA*eG; antisense) | 1.262
CO-7210 (eT*eT*eT*eG*eG*d[5mC]*dG*lT*dT*dA*lT*dT*dA*lA*dT*dT*l[5mC]*dT*dA*e[5mC]*eA*eG*eA*eG; antisense) | 1.362
